Laboratory results published in patent US11396517B1, “Exo-aza spiro inhibitors of menin-MLL interaction” (Janssen Pharmaceutica NV, priority 2017, dated 2022).
Read-outs that look alike come from different tables or passages of the source.

Experiments:
menin = molecular target: T1, menin (Homo sapiens, UniProt O00255, T541A); test: Menin/MLL homogenous time-resolved fluorescence (HTRF) assay; assay type: binding
T1 construct: Menin (a.a. 1-610-6×his tag)
T1 sequence (O00255 with tags, fused parts or gaps T541A): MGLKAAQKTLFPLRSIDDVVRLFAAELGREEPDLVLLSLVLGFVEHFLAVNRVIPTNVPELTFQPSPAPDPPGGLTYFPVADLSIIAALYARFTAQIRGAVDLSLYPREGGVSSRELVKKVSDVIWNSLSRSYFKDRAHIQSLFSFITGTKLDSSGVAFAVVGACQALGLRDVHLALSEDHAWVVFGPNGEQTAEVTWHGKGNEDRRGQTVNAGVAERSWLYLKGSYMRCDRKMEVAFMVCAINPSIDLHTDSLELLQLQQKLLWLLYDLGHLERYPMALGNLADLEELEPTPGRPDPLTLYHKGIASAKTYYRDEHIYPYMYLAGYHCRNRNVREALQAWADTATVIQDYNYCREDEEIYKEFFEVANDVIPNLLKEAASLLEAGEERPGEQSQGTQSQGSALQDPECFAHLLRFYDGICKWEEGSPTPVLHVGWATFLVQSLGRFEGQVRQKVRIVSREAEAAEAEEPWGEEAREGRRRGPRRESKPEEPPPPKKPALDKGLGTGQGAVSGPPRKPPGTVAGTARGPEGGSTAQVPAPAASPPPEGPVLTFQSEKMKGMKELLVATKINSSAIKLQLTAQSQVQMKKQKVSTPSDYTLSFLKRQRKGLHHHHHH
In short: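 Terbium-labeled menin (aa 1-610, His-tagged; […]) preincubated 5 min with compound, then 75 nM FITC-MBM1 peptide for 15 min, ambient, Tris pH 7.5, 0.5% DMSO. HTRF 520/490 ratio; 11-point 3-fold titration; IC50 from % inhibition fit.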

MOLM14 = test: Proliferation assay B (spheroid assay) MOLM14; assay type: cell-based, human; settings: MOLM14 cells, confluence at day 8, absolute IC50, read-out: (3b) Spheroid assay MOLM14 (IC50(μM)) Assay B
Protocol: 3b) Proliferation Assay B
The anti-proliferative effect of menin/MLL protein/protein interaction inhibitor test compounds was assessed in human leukemia cell lines. The cell lines MV-4-11 and MOLM14 harbor MILL translocations and express the MILL fusion proteins MLL-AF4 and MLL-AF9, respectively, as well as the wildtype protein from the second allele. […] K562 was used as a control cell line containing two MLL wildtype alleles in order to exclude compounds that display general cytotoxic effects.
MV-4-11 and MOLM14 were cultured in RPMI-1640 (Sigma Aldrich) supplemented with 10% fetal bovine serum (HyClone), 2 mM L-glutamine (Sigma Aldrich) and 50 μg/ml gentamycin (Gibco). K562 were propagated in RPMI-1640 (Sigma Aldrich) supplemented with 20% fetal bovine serum (HyClone), 2 mM L-glutamine (Sigma Aldrich) and 50 μg/ml gentamycin (Gibco).
In order to assess the anti-proliferative effects, 1,500 MV-4-11, 300 MOLM14 cells or 750 K562 cells were seeded in 200 μl media per well in 96-well round bottom, ultra-low attachment plates (Costar, catalogue number 7007). Cell seeding numbers were chosen based on growth curves to ensure linear growth throughout the experiment. Test compounds were added at different concentrations and the DMSO content was normalized to 0.3%. Cells were incubated for 8 d at 37° C. and 5% CO2. Spheroid like growth was measured in real-time by live-cell imaging (IncuCyteZOOM, Essenbio, 4× objective) acquiring images at day 8. Confluence (%) as a measure of spheroid size was determined using an integrated analysis tool.
In order to determine the effect of the test compounds over time, the confluence in each well as a measure of spheroid size, was calculated. Confluence […] at the beginning of the experiment (t=0) was used as baseline for the calculation.
Absolute IC50 values were calculated as percent change in confluence as follows:
LC=Low Control: cells treated with 1 μM of the cytotoxic agent staurosporin
HC=High Control: Mean confluence (%) (DMSO treated cells) % Effect=100−(100*(Sample−LC)/(HC−LC))
To determine the IC50 a curve is fitted to the plot of % Effect vs Log 10 compound concentration using a sigmoidal fit with a variable slope and fixing the maximum to 100% and the minimum to 0%.

[1] = location 2, read-out: (2) location 2 Menin HTRF assay (IC50 (nM))

IC50 (menin; [1]) [nM] | IC50 (MOLM14; Homo sapiens, MOLM-14, 192 h) [µM] | IC50 (MOLM14) [µM] | IC50 (menin; location 1, read-out: (2) location 1 Menin HTRF assay (IC50 (nM))) [nM] | SMILES
18.7 | 1.55 | – | – | N#Cc1ccc(NC2CC3(CCN(c4ncnc5sc(CC(F)(F)F)cc45)C3)C2)cn1 (mixture of isomers) [Compound 176]
43.4 | > 3.75 | – | – | CN(C)CCN(C)C(=O)c1ccc(NC2CC3(CCN(c4ncnc5sc(CC(F)(F)F)cc45)C3)C2)cc1 (mixture of isomers) [Compound 180]
7.9 | 1.22 | – | – | CC(NC(=O)c1ccc(NC2CC3(CCN(c4ncnc5sc(CC(F)(F)F)cc45)C3)C2)cc1)C1CCN(S(C)(=O)=O)CC1 (mixture of isomers) [Compound 191]
13.1 | 1 | – | – | CC(CN1CCN(S(C)(=O)=O)CC1)NC(=O)c1ccc(NC2CC3(CCN(c4ncnc5sc(CC(F)(F)F)cc45)C3)C2)cc1 (mixture of isomers) [Compound 192]
4.2 | 0.46 | – | – | CC(CN(C)C)NC(=O)c1ccc(NC2CC3(CCN(c4ncnc5sc(CC(F)(F)F)cc45)C3)C2)cc1 (mixture of isomers) [Compound 193]
141 | > 3.75 | – | – | O=c1[nH]c2ccc(NCC3CC4(CCN(c5ncnc6sc(CC(F)(F)F)cc56)C4)C3)cc2[nH]1 (mixture of isomers) [Compound 198]
9.4 | > 3.75 | – | – | CNC(=O)c1ccc(NC2CC3(CCN(c4ncnc5sc(CC(F)(F)F)cc45)C3)C2)cc1Cl (mixture of isomers) [Compound 214]
4000 | > 3.75 | – | – | CS(=O)(=O)N1CCN(CCn2c(=O)[nH]c3ccc(NC4CC5(CCN(c6ncnc7sc(CC(F)(F)F)cc67)C5)C4)cc32)CC1 (mixture of isomers) [Compound 221]
418 | > 3.75 | – | – | CS(=O)(=O)N1CCN(CCn2c(=O)[nH]c3cc(NC4CC5(CCN(c6ncnc7sc(CC(F)(F)F)cc67)C5)C4)ccc32)CC1 (mixture of isomers) [Compound 222]
80 | > 3.75 | – | – | CNC(=O)c1ccc(NC2CC3(CCN(c4ncnc5sc(CC(F)(F)F)cc45)C3)C2)cc1CCCN(C)C (mixture of isomers) [Compound 236]
114 | 2.64 | – | – | CN1CCC(COc2cc(NC3CC4(CCN(c5ncnc6sc(CC(F)(F)F)cc56)C4)C3)ccc2C#N)CC1 (mixture of isomers) [Compound 241]
146 | > 3.75 | – | – | CNc1nc(N2CCC3(CC(Nc4ccc5c(c4)oc(=O)n5CCN4CCN(S(C)(=O)=O)CC4)C3)C2)c2cc(CC(F)(F)F)sc2n1 (mixture of isomers) [Compound 250]
10.6 | > 3.75 | – | – | CNC(=O)c1cnc(NC2CC3(CCN(c4ncnc5sc(CC(F)(F)F)cc45)C3)C2)nc1 (mixture of isomers) [Compound 257]
2 | – | 2.54 | – | CNC(=O)c1ccc(NC2CC3(CCN(c4ncnc5sc(CC(F)(F)F)cc45)C3)C2)cc1 (mixture of isomers) [Compound 329]
7.1 | 2.47 | – | – | CS(=O)(=O)N1CCC(C#N)(c2ccc(NC3CC4(CCN(c5ncnc6sc(CC(F)(F)F)cc56)C4)C3)cc2)CC1 (mixture of isomers) [Compound 340]
4.8 | > 3.75 | – | – | CS(=O)(=O)c1ccc(NC2CC3(CCN(c4ncnc5sc(CC(F)(F)F)cc45)C3)C2)cc1 (mixture of isomers) [Compound 342]
4.9 | > 3.75 | – | – | CS(=O)(=O)Nc1ccc(NC2CC3(CCN(c4ncnc5sc(CC(F)(F)F)cc45)C3)C2)cc1 (mixture of isomers) [Compound 343]

IC50 (menin; [1]) [nM] | IC50 (MOLM14; Homo sapiens, MOLM-14, 192 h) [µM] | IC50 (MOLM14) [µM] | IC50 (menin; location 1, read-out: (2) location 1 Menin HTRF assay (IC50 (nM))) [nM] | SMILES
13.4 | > 3.75 | – | – | CS(=O)(=O)Cc1ccc(NC2CC3(CCN(c4ncnc5sc(CC(F)(F)F)cc45)C3)C2)cc1 (mixture of isomers) [Compound 344]
6.8 | 2.33 | – | – | O=C1OCCN1c1ccc(NC2CC3(CCN(c4ncnc5sc(CC(F)(F)F)cc45)C3)C2)cc1 (mixture of isomers) [Compound 345]
7.3 | 2.11 | – | – | O=C1NCCN1c1ccc(NC2CC3(CCN(c4ncnc5sc(CC(F)(F)F)cc45)C3)C2)cc1 (mixture of isomers) [Compound 346]
9.1 | 3.18 | – | – | O=C1OCCN1Cc1ccc(NC2CC3(CCN(c4ncnc5sc(CC(F)(F)F)cc45)C3)C2)cc1 (mixture of isomers) [Compound 347]
14.5 | > 3.75 | – | – | NC(=O)Cc1ccc(NC2CC3(CCN(c4ncnc5sc(CC(F)(F)F)cc45)C3)C2)cc1 (mixture of isomers) [Compound 348]
19.3 | > 3.75 | – | – | CS(=O)(=O)N1CCN(CCn2c(=O)oc3ccc(CNC4CC5(CCN(c6ncnc7sc(CC(F)(F)F)cc67)C5)C4)cc32)CC1 (mixture of isomers) [Compound 349]
21.1 | 3.55 | – | – | FC(F)(F)Cc1cc2c(N3CCC4(CC(Nc5ccc(CN6CCOCC6)cc5)C4)C3)ncnc2s1 (mixture of isomers) [Compound 350]
15.5 | 3.51 | – | – | CS(=O)(=O)N1CCN(Cc2ccc(NC3CC4(CCN(c5ncnc6sc(CC(F)(F)F)cc56)C4)C3)cc2)CC1 (mixture of isomers) [Compound 351]
9.4 | > 3.75 | – | – | Nc1nc(N2CCC3(CC(Nc4ccc5[nH]c(=O)[nH]c5c4)C3)C2)c2cc(CC(F)(F)F)sc2n1 (mixture of isomers) [Compound 381]
1.7 | – | 0.69 | – | CNC(=O)c1ccc(NC2CC3(CCN(c4ncnc5sc(CC(F)(F)F)cc45)C3)C2)c(Cl)c1 (single isomer, unassigned) [Compound 69]
8.7 | – | 0.95 | – | CN1CCC(c2cc(NC3CC4(CCN(c5ncnc6sc(CC(F)(F)F)cc56)C4)C3)ccc2C#N)CC1 (single isomer, unassigned) [Compound 80]
91.8 | > 3.75 | – | – | COCCNC(=O)c1ccc(NC2CC3(CCN(c4ncnc5sc(CC(F)(F)F)cc45)C3)C2)cc1 (single isomer, unassigned) [Compound 86]
3.8 | 0.99 | – | – | O=C(NCCN1CCOCC1)c1ccc(NC2CC3(CCN(c4ncnc5sc(CC(F)(F)F)cc45)C3)C2)cc1 (single isomer, unassigned) [Compound 88]
20.2 | 0.85 | – | – | Cn1c(=O)[nH]c2cc(NC3CC4(CCN(c5ncnc6sc(CC(F)(F)F)cc56)C4)C3)ccc21 (single isomer, unassigned) [Compound 90]
1200 | > 3.75 | – | 1160 | CS(=O)(=O)N[C@H]1CC[C@H](NC2CC3(CCN(c4ncnc5sc(CC(F)(F)F)cc45)C3)C2)CC1 (single isomer, unassigned) [Compound 103]
– | – | 2.94 | – | N#Cc1ccc(NC2CC3(CCN(c4ncnc5sc(CC(F)(F)F)cc45)C3)C2)nc1 (single isomer, unassigned) [Compound 174]
33.4 | – | 1.09 | – | N#Cc1ccc(NC2CC3(CCN(c4ncnc5sc(CC(F)(F)F)cc45)C3)C2)nc1 (single isomer, unassigned) [Compound 175]
